From PubChem BioAssay AID238 (DTP/NCI, 2004)
Where “and” joins values, the source holds several entries; their conditions need not be identical. Equal entries are not always repeated. Inconclusive results and toxic doses are left out.

Tested on: CAF1 mice, leiomyosarcoma No.2 ip, survival T/C%
Experiment: NCI In Vivo Anticancer Drug Screen. Data for tumor model Leiomyosarcoma (No. 2) (intraperitoneal) in CAF1 mice
Settings: endpoint: mean survival time, higher = longer survival
Method: The antitumor activity of compounds was measured in mice bearing transplantable tumors. Survival or tumor size were measured and the results are expressed as the measurement made in the treated group (T) divided by the measurement made in the vehicle treated control group (C). The tumor model used in this assay is Leiomyosarcoma (No. 2) (intraperitoneal) in CAF1 mice

[1] = dose: 12.5 mg/kg/injection, schedule: Q01DX010 (ip), vehicle: saline
[2] = dose: 25.0 mg/kg/injection, schedule: Q01DX010 (ip), vehicle: saline
[3] = dose: 50.0 mg/kg/injection, schedule: Q01DX010 (ip), vehicle: saline
[4] = dose: 31.3 mg/kg/injection, schedule: Q01DX010 (ip), vehicle: saline
[5] = dose: 62.5 mg/kg/injection, schedule: Q01DX010 (ip), vehicle: saline
[6] = dose: 0.5 mg/kg/injection, schedule: Q01DX010 (ip), vehicle: saline
[7] = dose: 1.0 mg/kg/injection, schedule: Q01DX010 (ip), vehicle: saline
[8] = dose: 6.25 mg/kg/injection, schedule: Q01DX010 (ip), vehicle: saline
[9] = dose: 20.0 mg/kg/injection, schedule: Q01DX010 (ip), vehicle: saline
[10] = dose: 1.25 mg/kg/injection, schedule: Q01DX010 (ip), vehicle: saline
[11] = dose: 2.5 mg/kg/injection, schedule: Q01DX010 (ip), vehicle: saline
[12] = dose: 5.0 mg/kg/injection, schedule: Q01DX010 (ip), vehicle: saline
[13] = dose: 10.0 mg/kg/injection, schedule: Q01DX010 (ip), vehicle: saline
[14] = dose: 125.0 mg/kg/injection, schedule: Q01DX010 (ip), vehicle: saline
[15] = dose: 250.0 mg/kg/injection, schedule: Q01DX010 (ip), vehicle: saline
[16] = dose: 100.0 mg/kg/injection, schedule: Q01DX010 (ip), vehicle: saline
[17] = dose: 200.0 mg/kg/injection, schedule: Q01DX010 (ip), vehicle: saline

COS(C)(=O)=O
T/C [1]: 108 % of control | T/C [2]: 108 % of control | T/C [3]: 112 % of control

CCCCNc1ncnc2c1cnn2C
T/C (dose: 15.6 mg/kg/injection, schedule: Q01DX010 (ip), vehicle: saline): 92 % of control | T/C [4]: 89 % of control and 103 % of control | T/C [5]: 90 % of control and 112 % of control

CS(=O)(=O)OCCN(CCOS(C)(=O)=O)c1ccc(N=O)cc1
T/C (dose: 0.25 mg/kg/injection, schedule: Q01DX010 (ip), vehicle: saline): 221 % of control | T/C [6]: 173 % of control | T/C [7]: 113 % of control

N=[N+]=CC(=O)OCC(N)C(=O)O (centres undefined)
T/C (dose: 3.13 mg/kg/injection, schedule: Q01DX010 (ip), vehicle: saline): 96 % of control | T/C [8]: 104 % of control | T/C [2]: 96 % of control

CCCNc1ncnc2[nH]ncc12
T/C [8]: 114 % of control | T/C [1]: 88 % of control and 90 % of control

OCC1OC(n2cnc3c(=S)nc[nH]c32)C(O)C1O (centres undefined)
T/C [9]: 161 % of control and 248 % of control | T/C (dose: 80.0 mg/kg/injection, schedule: Q01DX010 (ip), vehicle: saline): 153 % of control | T/C (dose: 160.0 mg/kg/injection, schedule: Q01DX010 (ip), vehicle: saline): 87 % of control

Oc1cc(CN(CCCl)CCCl)c(O)cc1CN(CCCl)CCCl
T/C (dose: 0.31 mg/kg/injection, schedule: Q01DX010 (ip), vehicle: saline): 162 % of control | T/C (dose: 0.63 mg/kg/injection, schedule: Q01DX010 (ip), vehicle: saline): 159 % of control | T/C [10]: 159 % of control and 175 % of control and 184 % of control | T/C [11]: 186 % of control | T/C [12]: 118 % of control

O=C(O)c1[nH]c(=O)[nH]c(=O)c1F
T/C [10]: 112 % of control | T/C [11]: 112 % of control | T/C [12]: 120 % of control | T/C [13]: 108 % of control

O=c1cn[nH]c(=O)[nH]1
T/C [5]: 114 % of control | T/C [14]: 90 % of control and 106 % of control | T/C [15]: 92 % of control and 107 % of control | T/C (dose: 500.0 mg/kg/injection, schedule: Q01DX010 (ip), vehicle: saline): 96 % of control

CCN(CC)CCNc1ccc(C)c2sc3ccccc3c(=O)c12
T/C [1]: 116 % of control | T/C [2]: 100 % of control and 116 % of control | T/C [3]: 103 % of control | T/C [16]: 154 % of control

N#[N+]c1cnc([O-])[nH]c1=O
T/C [11]: 213 % of control | T/C [13]: 93 % of control

CS(=O)(=O)OCCCCOS(C)(=O)=O
T/C [8]: 100 % of control | T/C [1]: 96 % of control and 123 % of control | T/C [2]: 103 % of control | T/C [3]: 86 % of control

Nc1nc(F)nc2c1ncn2C1OC(CO)C(O)C1O (centres undefined)
T/C [6]: 104 % of control | T/C [7]: 104 % of control and 113 % of control | T/C (dose: 2.0 mg/kg/injection, schedule: Q01DX010 (ip), vehicle: saline): 100 % of control and 109 % of control | T/C (dose: 4.0 mg/kg/injection, schedule: Q01DX010 (ip), vehicle: saline): 113 % of control and 118 % of control | T/C (dose: 8.0 mg/kg/injection, schedule: Q01DX010 (ip), vehicle: saline): 86 % of control

CN(C)c1nc(N(C)C)nc(N(C)C)n1
T/C (dose: 18.8 mg/kg/injection, schedule: Q01DX010 (ip), vehicle: saline): 100 % of control and 108 % of control | T/C (dose: 37.5 mg/kg/injection, schedule: Q01DX010 (ip), vehicle: saline): 89 % of control and 112 % of control | T/C (dose: 75.0 mg/kg/injection, schedule: Q01DX010 (ip), vehicle: saline): 96 % of control and 104 % of control | T/C (dose: 150.0 mg/kg/injection, schedule: Q01DX010 (ip), vehicle: saline): 110 % of control

N=C(N)SCc1c2ccccc2c(CSC(=N)N)c2ccccc12
T/C [11]: 172 % of control | T/C [12]: 186 % of control and 209 % of control | T/C [13]: 177 % of control and 204 % of control | T/C [9]: 109 % of control and 209 % of control | T/C (dose: 40.0 mg/kg/injection, schedule: Q01DX010 (ip), vehicle: saline): 104 % of control

O=c1[nH]cc(F)c(=O)[nH]1
T/C [12]: 195 % of control | T/C [13]: 213 % of control and 227 % of control | T/C [9]: 181 % of control and 186 % of control

O=C(O)CCCc1ccc(N(CCCl)CCCl)cc1
T/C [8]: 153 % of control and 279 % of control | T/C [1]: 203 % of control and 225 % of control

CS(=O)(=O)OCC(O)C(O)C(O)C(O)COS(C)(=O)=O (centres undefined)
T/C [2]: 104 % of control | T/C [3]: 109 % of control and 113 % of control | T/C [16]: 118 % of control | T/C [17]: 118 % of control

CC/C(=C(/CC)c1ccc(O)cc1)c1ccc(O)cc1
T/C (dose: 12.5 mg/kg/injection, schedule: Q01DX010 (sc), vehicle: steriod suspending solution): 91 % of control and 96 % of control | T/C (dose: 25.0 mg/kg/injection, schedule: Q01DX010 (sc), vehicle: steriod suspending solution): 96 % of control and 100 % of control | T/C (dose: 50.0 mg/kg/injection, schedule: Q01DX010 (sc), vehicle: steriod suspending solution): 91 % of control and 92 % of control | T/C (dose: 100.0 mg/kg/injection, schedule: Q01DX010 (sc), vehicle: steriod suspending solution): 91 % of control and 100 % of control

CSc1ncnc2nc[nH]c12
T/C [2]: 100 % of control and 109 % of control | T/C [3]: 104 % of control and 109 % of control | T/C [16]: 104 % of control and 113 % of control | T/C [17]: 100 % of control

CCCSc1ncnc2nc[nH]c12
T/C [4]: 189 % of control and 233 % of control | T/C [14]: 103 % of control and 117 % of control | T/C [15]: 103 % of control
